# Key:
# SH-SY5Y cells [1] = experiment: MTS assay 72 h, neurotoxic effect; assay type: cell-based, human; details: 10 and 50 μM
# Experimental: SHSY5Y cells were grown in DMEM supplemented by 10% FBS, L-glutamine (2 mM), and penicillin (100u/mL)/streptomycin (100 μg/mL). The cell line was tested for mycoplasma using DAPI staining and the LookOut Mycoplasma PCR Detection Kit (MP0035, Merck). The cell line was authenticated after thawing by a morphology check, cell proliferation rate evaluation, and species verification by PCR. Bacteria contamination was excluded. […] Subsequently, cells were subjected to a CellTiter 96 AQueous One Solution Cell Proliferation Assay (Promega), according to the manufacturer’s protocol. The absorbance at 490 nm was evaluated to estimate the cell number.
# rats = experiment: NORT after 21 day administration, discrimination index; assay type: in vivo, rat; details: 21 days; for reversal of (+)MK-801-induced memory disturbances (DI): (+)MK-801 0.1 mg/kg
# Experimental: Standard laboratory food (LSM-B) and filtered water as well as environment enrichment were freely available. Animals were randomly divided into treatment groups using a computer-based random order generator. All of the experiments were performed by two observers unaware of the treatment applied between 9:00 and 14:00 on separate groups of animals.
# In the NOR test (NORT), rats were randomly divided into experimental groups (n = 8/group). […] All compounds were prepared immediately before administration and were injected intraperitoneally (i.p.) in a constant volume of 2 mL/kg. […] The control group received 1% Tween 80 on the same schedule.
# The test was carried out according to the method described by Ennaceur.[46] NORT was conducted in two black-painted wood boxes (60 cm × 60 cm × 60 cm). A video camera mounted above the boxes recorded all experiments. Two days before the test, the rats were placed in the empty experimental boxes for 5 min as a habituation to the test area. On the third day, the test was performed in 2 trials lasting for 3 min at one-hour intervals. First session, familiarization (T1) with two identical objects (A1 and A2) located in the opposite corners of the boxes, approximately 10 cm from the walls, and second trial, recognition (T2) with one familiar (A) and one novel object (B). Metal cans and glass jars with sand were used as the objects. The boxes were cleaned and dried after each measurement. The exploration time (E) of the objects (such as looking, licking, sniffing, or touching while sniffing) during T2 was measured, and the discrimination index (DI) was calculated according to the following formula: DI = (EB – EA)/(EA + EB).
# The normality of data distribution and the homogeneity of variance were checked using the Shapiro–Wilk’s test and Levene’s test, respectively. All behavioral results are shown as the means ± SEM.
# [2] = design: method as in PMID 38190615, PMID 35228010; details: LC/MS after biotransformation in rLMs; cited from earlier work
# [3] = design: method as in PMID 38190615, PMID 35228010; details: AMES test; cited from earlier work
# HepG2 = test system: HepG2; design: method as in PMID 38190615, PMID 35228010; details: tested at 0.1–100 μM; cited from earlier work
# SH-SY5Y cells [4] = experiment: qRT-PCR of neurodegeneration-associated genes; assay type: cell-based, human; details: 10 and 50 μM, 24 h
# [5] = design: method as in PMID 38190615, PMID 35228010; details: cited from earlier work
# 5-HT2AR = details: read-out: radioligand binding assay Ki; cloned receptors; cited from earlier work
smiles,measurement,setting,value
"CN1CCN(c2nc(N)nc(C(C)(C)Sc3ccc4ccccc4c3)n2)CC1 [WA-22, 4-(4-methylpiperazin-1-yl)-6-(2-(naphthalen-2-ylthio)propan-2-yl)-1,3,5-triazin-2-amine]",neurotoxic effect (MTS),SH-SY5Y cells [1],no significant differences
same,influence on memory compared to vehicle-treated rats (DI),"rats; 1 mg/kg/day i.p., without (+)MK-801",No memory changing
same,reversal of (+)MK-801-induced memory disturbances (DI),rats; 1 mg/kg/day i.p.,significantly reversed
same,reversal of (+)MK-801-induced memory disturbances (DI),rats; 3 mg/kg/day i.p.,"also observed for a dose of 3 mg/kg, but memory restoration was not at the same level as that of control rats"
same,"metabolic stability, % of remaining structure",[2],74%
same,mutagenic,[3],no
same,hepatotoxic (statistically significant HepG2 viability decrease),HepG2,>25 µM
same,NRF2 transcription,SH-SY5Y cells [4],neither WA-22 nor PPK-32 were able to stimulate its transcription
same,"expression of NQO1, SOD1, and HO1",SH-SY5Y cells [4],"induces the expression of the same genes, although with a lower significance and increase"
same,expression of pro-inflammatory gene NFkB,SH-SY5Y cells [4],neither WA-22 nor PPK-32 were able to downregulate
same,permeability PAMPA Pe,[5],13.8 × 10^–6 cm/s
same,Ki,5-HT2AR,39 nM

# Source: publication PMC11926880, “Procognitive Potential of Neuroprotective Triazine 5-HT6 Receptor Antagonists Tested on Chronic Activity In Vivo in Rats: Computer-Aided Insight into the Role of Chalcogen-Differences on the Pharmacological Profile” (ACS Chemical Neuroscience, 2025)
